What was measured:
Alternaria solani = Alternaria solani / tomato / leaf disc (early blight); type: in vivo; conditions: foliar, inoculated 2 days after application, vs untreated control
Experimental: Example B1: Alternaria solani/Tomato/Leaf Disc (Early Blight) Tomato leaf disks cv. Baby are placed on agar in multiwell plates (24-well format) and sprayed with the formulated test compound diluted in water. The leaf disks are inoculated with a spore suspension of the fungus 2 days after application. The inoculated leaf disks are incubated at 23° C./21° C. (day/night) and 80% relative humidity under a light regime of 12 h/12 h (light/dark) in a climate cabinet and the activity of a compound is assessed as percent disease control compared to untreated when an appropriate level of disease damage appears on untreated check disk leaf disks (5-7 days after application).

Glomerella lagenarium = Glomerella lagenarium (Colletotrichum lagenarium) / liquid culture (anthracnose); type: cell-based; conditions: Colletotrichum orbiculare, 72 h, photometrically 3-4 days after application, read-out: control of Glomerella lagenarium
Experimental: (§1) Example B5: Glomerella Lagenarium (Colletotrichum Lagenarium)/Liquid Culture (Anthracnose) Conidia of the fungus from cryogenic storage are directly mixed into a nutrient broth (potato dextrose broth). After placing a DMSO solution of test compound into a microtiter plate (96-well format), the nutrient broth containing the fungal spores is added. The test plates are incubated at 24° C. and the inhibition of growth is measured photometrically 3-4 days after application.

Mycosphaerella arachidis = Mycosphaerella arachidis (Cercospora arachidicola) / liquid culture (early leaf spot); type: cell-based; conditions: 96 h, photometrically 4-5 days after application, read-out: control of Mycosphaerella arachidis
Experimental: as §1, with “B11: Mycosphaerella arachidis (Cercospora arachidicola)/Liquid” for “B5: Glomerella Lagenarium (Colletotrichum Lagenarium)/Liquid”, “(Early Leaf Spot)” for “(Anthracnose)”, “determined” for “measured”, “4-5” for “3-4”

[1] = system: Mycosphaerella graminicola; experiment: Mycosphaerella graminicola (Septoria tritici) / liquid culture (Septoria blotch); type: cell-based; conditions: Zymoseptoria tritici, 96 h, photometrically 4-5 days after application, read-out: control of Mycosphaerella graminicola
Outline: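 Conidia from cryogenic storage mixed into potato dextrose broth, added to test compound in DMSO. Plates incubated at 24° C; growth inhibition read photometrically 4-5 days after application.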

Monographella nivalis = Monographella nivalis (Microdochium nivale) / liquid culture (foot rot cereals); type: cell-based; conditions: 96 h, photometrically 4-5 days after application, read-out: control of Monographella nivalis
Experimental: as §1, with “B10: Monographella nivalis (Microdochium nivale)/Liquid” for “B5: Glomerella Lagenarium (Colletotrichum Lagenarium)/Liquid”, “(Foot Rot Cereals)” for “(Anthracnose)”, “determined” for “measured”, “4-5” for “3-4”

SMILES | pest or weed control at 200 ppm (Alternaria solani) | inhibition of growth at 20 ppm (Glomerella lagenarium) | inhibition of growth at 20 ppm (Mycosphaerella arachidis) | inhibition of growth at 20 ppm [1] | inhibition of growth at 20 ppm (Monographella nivalis)
Cn1ncc(C2CN(C(=O)c3cc(-c4ccc(F)cc4F)on3)Cc3ccccc32)c1Cl (centres unmarked) [Compound P-38, [4-(5-chloro-1-methyl-pyrazol-4-yl)-3,4-dihydro-1H-isoquinolin-2-yl]-[5-(2,4-difluorophenyl)isoxazol-3-yl]methanone] | ≥ 80% | – | – | – | –
COC(=O)C1c2ccccc2C(c2cnn(C)c2)CN1C(=O)c1cc(-c2ccc(F)cc2F)on1 (centres unmarked) [Compound P-42, methyl 2-[5-(2,4-difluorophenyl)isoxazole-3-carbonyl]-4-(1-methylpyrazol-4-yl)-3,4-dihydro-1H-isoquinoline-1-carboxylate] | ≥ 80% | – | – | – | –
COc1ccc2c(c1)CN(C(=O)c1cc(-c3ccccc3)on1)CC2c1cnn(C)c1 (centres unmarked) [Compound P-50, [7-methoxy-4-(1-methylpyrazol-4-yl)-3,4-dihydro-1H-isoquinolin-2-yl]-(5-phenylisoxazol-3-yl)methanone] | – | ≥ 80% | ≥ 80% | ≥ 80% | –
Cn1ncc(C2CN(C(=O)c3cc(-c4ccc(F)cc4F)on3)Cc3ccccc32)c1F (centres unmarked) [Compound P-52, [5-(2,4-difluorophenyl)isoxazol-3-yl]-[4-(5-fluoro-1-methyl-pyrazol-4-yl)-3,4-dihydro-1H-isoquinolin-2-yl]methanone] | ≥ 80% | – | – | – | –
Cn1cc(C2CN(C(=O)c3nnc(-c4ccc(F)cc4F)o3)Cc3ccccc32)cn1 (centres unmarked) [Compound P-55, [5-(2,4-difluorophenyl)-1,3,4-oxadiazol-2-yl]-[4-(1-methylpyrazol-4-yl)-3,4-dihydro-1H-isoquinolin-2-yl]methanone] | ≥ 80% | – | – | ≥ 80% | –
Cn1cc(C2CN(C(=O)c3nnc(-c4ccc(F)cc4)o3)Cc3ccccc32)cn1 (centres unmarked) [Compound P-56, [5-(4-fluorophenyl)-1,3,4-oxadiazol-2-yl]-[4-(1-methylpyrazol-4-yl)-3,4-dihydro-1H-isoquinolin-2-yl]methanone] | ≥ 80% | – | – | – | –
Cn1cc(C2c3ccccc3CN(C(=O)c3cc(-c4ccc(F)cc4F)on3)C2(C)C)cn1 (centres unmarked) [Compound P-105, [5-(2,4-difluorophenyl)isoxazol-3-yl]-[3,3-dimethyl-4-(1-methylpyrazol-4-yl)-1,4-dihydroisoquinolin-2-yl]methanone] | ≥ 80% | – | – | – | –
Cn1cc(C2CN(C(=O)c3cc(-c4ccc(F)cc4F)on3)Cc3cc(C(F)(F)F)ccc32)cn1 (centres unmarked) [Compound P-111, [5-(2,4-difluorophenyl)isoxazol-3-yl]-[4-(1-methylpyrazol-4-yl)-7-(trifluoromethyl)-3,4-dihydro-1H-isoquinolin-2-yl]methanone] | – | ≥ 80% | – | ≥ 80% | ≥ 80%
Cc1nn(C)cc1C1CN(C(=O)c2cc(-c3ccc(F)cc3F)on2)Cc2ccccc21 (centres unmarked) [Compound P-121, [5-(2,4-difluorophenyl)isoxazol-3-yl]-[4-(1,3-dimethylpyrazol-4-yl)-3,4-dihydro-1H-isoquinolin-2-yl]methanone] | – | ≥ 80% | ≥ 80% | ≥ 80% | ≥ 80%
Cc1nn(C)c(C)c1C1CN(C(=O)c2cc(-c3ccc(F)cc3F)on2)Cc2ncccc21 (centres unmarked) [Compound P-124, [5-(2,4-difluorophenyl)isoxazol-3-yl]-[5-(1,3,5-trimethylpyrazol-4-yl)-6,8-dihydro-5H-1,7-naphthyridin-7-yl]methanone] | ≥ 80% | – | – | – | –
Cn1cc(C2CN(C(=O)c3cc(-c4ccccc4)on3)Cc3cc(F)ccc32)cn1 (centres unmarked) [Compound P-138, [7-fluoro-4-(1-methylpyrazol-4-yl)-3,4-dihydro-1H-isoquinolin-2-yl]-(5-phenylisoxazol-3-yl)methanone] | – | ≥ 80% | ≥ 80% | ≥ 80% | ≥ 80%
Cn1cc(C2CN(C(=O)c3cc(-c4ccccc4)on3)Cc3ccc(F)cc32)cn1 (centres unmarked) [Compound P-139, [6-fluoro-4-(1-methylpyrazol-4-yl)-3,4-dihydro-1H-isoquinolin-2-yl]-(5-phenylisoxazol-3-yl)methanone] | – | ≥ 80% | ≥ 80% | ≥ 80% | –
Cc1c(C2CN(C(=O)c3cc(-c4ccc(F)cc4F)on3)Cc3ccccc32)cnn1C (centres unmarked) [Compound P-140, [5-(2,4-difluorophenyl)isoxazol-3-yl]-[4-(1,5-dimethylpyrazol-4-yl)-3,4-dihydro-1H-isoquinolin-2-yl]methanone] | ≥ 80% | – | – | – | –
Cn1cc(C2CN(C(=O)c3noc(-c4ccccc4)n3)Cc3ccccc32)cn1 (centres unmarked) [Compound P-146, [4-(1-methylpyrazol-4-yl)-3,4-dihydro-1H-isoquinolin-2-yl]-(5-phenyl-1,2,4-oxadiazol-3-yl)methanone] | ≥ 80% | – | – | – | –
Cn1cc(C2CN(C(=O)c3cc(-c4cc(F)ccc4F)on3)Cc3ccccc32)cn1 (centres unmarked) [Compound P-149, [5-(2,5-difluorophenyl)isoxazol-3-yl]-[4-(1-methylpyrazol-4-yl)-3,4-dihydro-1H-isoquinolin-2-yl]methanone] | – | ≥ 80% | – | ≥ 80% | ≥ 80%
Cn1cc(C2CN(C(=O)c3nnc(-c4ccccc4)o3)Cc3ccccc32)cn1 (centres unmarked) [Compound P-163, [4-(1-methylpyrazol-4-yl)-3,4-dihydro-1H-isoquinolin-2-yl]-(5-phenyl-1,3,4-oxadiazol-2-yl)methanone] | ≥ 80% | – | – | – | –
Cc1ccccc1-c1cc(C(=O)N2Cc3ccccc3C(c3cnn(C)c3)C2)no1 (centres unmarked) [Compound P-169, [4-(1-methylpyrazol-4-yl)-3,4-dihydro-1H-isoquinolin-2-yl]-[5-(o-tolyl)isoxazol-3-yl]methanone] | – | ≥ 80% | – | ≥ 80% | ≥ 80%
Cn1cc(C2CN(C(=O)c3cc(-c4ccco4)on3)Cc3ccccc32)cn1 (centres unmarked) [Compound P-188, [5-(2-furyl)isoxazol-3-yl]-[4-(1-methylpyrazol-4-yl)-3,4-dihydro-1H-isoquinolin-2-yl]methanone] | – | ≥ 80% | ≥ 80% | ≥ 80% | –
Cn1cc(C2CN(C(=O)c3cc(-c4cccc(Cl)c4)on3)Cc3ccccc32)cn1 (centres unmarked) [Compound P-190, [5-(3-chlorophenyl)-isoxazol-3-yl]-[4-(1-methylpyrazol-4-yl)-3,4-dihydro-1H-isoquinolin-2-yl]methanone] | – | ≥ 80% | – | ≥ 80% | ≥ 80%
Cn1cc(C2CN(C(=O)c3cc(-c4ccccc4)on3)Cc3ccccc32)cn1 (centres unmarked) [Compound P-205, [4-(1-methylpyrazol-4-yl)-3,4-dihydro-1H-isoquinolin-2-yl]-(5-phenylisoxazol-3-yl)methanone] | – | ≥ 80% | ≥ 80% | ≥ 80% | ≥ 80%
Cn1cc(C2(C)CN(C(=O)c3nnc(-c4ccc(F)cc4F)s3)Cc3ccccc32)cn1 (centres unmarked) [Compound P-207, [5-(2,4-difluorophenyl)-1,3,4-thiadiazol-2-yl]-[4-methyl-4-(1-methylpyrazol-4-yl)-1,3-dihydroisoquinolin-2-yl]methanone] | ≥ 80% | – | – | – | –
Cn1cc([C@]2(C)CN(C(=O)c3nnc(-c4ccc(F)cc4F)s3)Cc3ccccc32)cn1 [Compound P-208, [5-(2,4-difluorophenyl)-1,3,4-thiadiazol-2-yl]-[(4R)-4-methyl-4-(1-methylpyrazol-4-yl)-1,3-dihydroisoquinolin-2-yl]methanone] | ≥ 80% | – | – | – | –
Cc1c(C2CN(C(=O)c3nnc(-c4ccc(F)cc4F)o3)Cc3ccccc32)cnn1C (centres unmarked) [Compound P-225] | ≥ 80% | – | – | – | –
Cc1c(C2CN(C(=O)c3cc(-c4cccn4C)on3)Cc3ccccc32)cnn1C (centres unmarked) [Compound P-231, [4-(1,5-dimethylpyrazol-4-yl)-3,4-dihydro-1H-isoquinolin-2-yl]-[5-(1-methylpyrrol-2-yl)isoxazol-3-yl]methanone] | – | ≥ 80% | ≥ 80% | ≥ 80% | –
Cc1c(C2CN(C(=O)c3nnc(C4CCC4)s3)Cc3ccccc32)cnn1C (centres unmarked) [Compound P-232, (5-cyclobutyl-1,3,4-thiadiazol-2-yl)-[4-(1,5-dimethylpyrazol-4-yl)-3,4-dihydro-1H-isoquinolin-2-yl]methanone] | – | ≥ 80% | ≥ 80% | ≥ 80% | –

Source: patent US20250325534A1, “MICROBIOCIDAL TETRAHYDROISOQUINOLINE DERIVATIVES” (SYNGENTA CROP PROTECTION AG, priority 2021, published 2025)
